In patent EP4268823A1, “COMPOUND FOR TREATING NEUROINFLAMMATION” (Universitätsklinikum Hamburg-Eppendorf, priority 2022, dated 2023):

Assays:
anti-ferroptotic genes = assay: qPCR of ferroptosis-related genes in sorted spinal cord neuronal nuclei of EAE mice; type: in vivo, mouse; details: EAE + UNC0642 vs. EAE
EAE mice = assay: Experimental autoimmune encephalomyelitis (EAE): clinical score and spinal cord histopathology
[1] = test system: primary cortical cultures; assay: RealTime-Glo cell viability assay, glutamate excitotoxicity; type: cell-based, mouse; details: G9a-deficient neurons from G9afl/fl;Snap25-Cre mice treated with UNC0642; readout not stated
Procedure: For primary cortical cultures pregnant C57BL/6J, or G9afl/fl;Snap25-Cre mice were euthanized. To ensure comparability between genotypes, only embryos from heterozygous breeding's were used. Brainstem tissue of each embryo for genotyping was reserved and cortices were isolated, dissociated and cells were plated at a density of 1 × 10^5 cells per 1 cm^2 on poly-D-lysine-coated wells (5 µM Sigma-Aldrich, cat. no. A-003-M). If not stated otherwise, cells were maintained in neurobasal plus medium (supplemented with B27 plus, penicillin, streptomycin and L-glutamine; Gibco, cat. no. A3582901) at 37°C, 5% CO^2 and a relative humidity of 98%, and treated with 1 µM cytarabine (Sigma-Aldrich, cat. no. BP383) at 1 day in vitro (div) to inhibit glial cell proliferation. If no cytarabine was applied cells were maintained in PNBM medium (supplemented with neural cell survival factor, gentamycin and L-glutamine; Lonza). Throughout, cultures after 14-23 div were used for experiments. […]
RealTime-Glo (Promega, cat. no. G9711) MT cell viability substrate and NanoLuc Enzyme was mixed together, added to neuronal cultures and incubated for 5 hours for equilibration of luminescence signal before respective treatments were applied. Luminescence was acquired with a Spark 10M multimode microplate reader (Tecan) at 37°C and 5% CO2 every 30 min over a total time period of 24 hours. […]

[2] = test system: ferroptosis-related genes; assay: mRNA expression of ferroptosis-related genes in erastin-treated hiPSC-neurons; type: cell-based; details: erastin-treated human neurons ± UNC0642
Excerpt: Human iPSCs (ZIPi013-B) (83) were maintained under feeder-free conditions on Matrigel (Corning)-coated plates in mTeSR1 medium (Stem Cell Technologies, cat. no. 85850). For neuronal induction, iPSCs were dissociated with Accutase and seeded at a density of 3 × 10^6 cells per well on AggreWell800 plates (10,000 cells per embryoid body (EB), Stem Cell Technologies) in SMADi Neural Induction Medium (SMADi NIM, Stem Cell Technologies, cat. no. 08582) supplemented with […] (Stem Cell Technologies, cat. no. 72302). On day 6, EBs were harvested and cultivated on Matrigel-coated plates in SMADi NIM for 12 days. Newly formed neural rosettes were manually picked and cultured for another 4 days. In order to release neural precursor cells (NPCs), neural rosettes were dissociated with Accutase and were maintained for several passages at high density in Neural Progenitor Medium (Stem Cell Technologies, cat. no. 05833) on Matrigel-coated plates. HiPSC-derived NPCs were differentiated into neurons as previously described (84, 85) with some modifications. Briefly, NPCs were seeded at a density of 1 × 10^5 cells per cm^2 in Neural Progenitor Medium onto Matrigel-coated plates. […]
RNA was extracted using RNeasy Mini Kit (Qiagen) and subsequently reverse-transcribed to complementary DNA with the RevertAid H Minus First Strand cDNA Synthesis Kit (Thermo Fisher Scientific) according to the manufacturer's instructions. Gene expression was analyzed by real-time PCR performed in an ABI Prism 7900 HT Fast Real-Time PCR System (Applied Biosystems) using TaqMan Gene Expression Assays (Thermo Fisher Scientific). Gene expression was calculated as 2-ΔCt relative to Tbp as the endogenous control.

[3] = test system: primary neuronal cultures; assay: Oxidative stress detection with CellROX green reagent after glutamate; type: cell-based, mouse; details: 20 µM glutamate 1 hour, UNC0642 pre-treatment
Procedure: For primary cortical cultures pregnant C57BL/6J, or G9afl/fl;Snap25-Cre mice were euthanized. To ensure comparability between genotypes, only embryos from heterozygous breeding's were used. Brainstem tissue of each embryo for genotyping was reserved and cortices were isolated, dissociated and cells were plated at a density of 1 × 10^5 cells per 1 cm^2 on poly-D-lysine-coated wells (5 µM Sigma-Aldrich, cat. no. A-003-M). If not stated otherwise, cells were maintained in neurobasal plus medium (supplemented with B27 plus, penicillin, streptomycin and L-glutamine; Gibco, cat. no. A3582901) at 37°C, 5% CO^2 and a relative humidity of 98%, and treated with 1 µM cytarabine (Sigma-Aldrich, cat. no. BP383) at 1 day in vitro (div) to inhibit glial cell proliferation. If no cytarabine was applied cells were maintained in PNBM medium (supplemented with neural cell survival factor, gentamycin and L-glutamine; Lonza). Throughout, cultures after 14-23 div were used for experiments. G9a inhibitor UNC0642 was used in a concentration of 1 µM and cultures were pre-treated 24 hours before further experimental procedures.
For the detection of oxidative stress in response to glutamate treatment, CellROX green reagent (Thermofisher) was used. […] Immunofluorescence of nuclear CellROX dye was quantified using Fiji (ImageJ).

For `COc1cc2c(NC3CCN(C(C)C)CC3)nc(N3CCC(F)(F)CC3)nc2cc1OCCCN1CCCC1` [UNC0642, 2-(4,4-difluoropiperidin-1-yl)-6-methoxy-N-[1-(propan-2-yl)piperidin-4-yl]-7-[3-(pyrrolidin-1-yl)propoxy]quinazolin-4-amine], the “mRNA expression of Cbs” value (anti-ferroptotic genes) was “significantly boosted the expression”, the “mRNA expression of Gclc” value (anti-ferroptotic genes) was “significantly boosted the expression” and the “mRNA expression of Gpx4” value (anti-ferroptotic genes) was “significantly boosted the expression”. For the same compound, the “mRNA expression of Nfe212” value (anti-ferroptotic genes) was “significantly boosted the expression”, the “mRNA expression of multiple glutathione S-transferases” value (anti-ferroptotic genes) was “derepression” and the EAE disease course (EAE mice; 5 mg kg-1 body weight once daily intraperitoneally from symptom onset, vs. vehicle) was “significantly ameliorated EAE disease course”. For the same compound, the body weight changes (EAE mice; EAE, 5 mg kg-1 UNC0642) was “not altered”, the immune cell infiltration (EAE mice; EAE, 5 mg kg-1 UNC0642) was “not altered” and the microglia activation (EAE mice; EAE, 5 mg kg-1 UNC0642) was “not altered”. The “4-hydroxy-2-nonenal (4-HNE) levels” value (EAE mice; cervical spinal cord sections, chronic EAE, 5 mg kg-1 UNC0642 vs. vehicle) was “significantly reduced”, the “neuronal loss in the spinal cord ventral horn” value (EAE mice; chronic EAE, day 30, 5 mg kg-1 UNC0642) was “reduced neuronal loss” and the “additional rescue effect during glutamate stress” value [1] was “no additional rescue effect”. The “mRNA expression of GPX4” value [2] was “significant upregulation”, the “mRNA expression of Gclc” value [2] was “significant upregulation” and the “mRNA expression of SLC7A11” value [2] was “highly upregulated”. For the same compound, the “generation of ROS (CellROX green)” value [3] was “reduced the generation of ROS close to baseline levels”.
